Entries after “also recorded” stand apart in the source; their conditions may differ.
How the values were obtained:
[1] = test system: Tet2-KO Lin-negative bone marrow cells; test: CFU (colony forming unit) assay, primary and secondary replating; format: cell-based, mouse; conditions: primary and secondary plating, in vitro
Excerpt: CFU assay. Bone marrow Lin-negative cells or LSK cells were isolated as described above and platted in a CFU assay using MethoCult™ GF M3434 (Stem Cell). Colonies were counted after 7-days of culture.

[2] = test system: Tet2-KO mice; test: LPS-induced acute inflammation (emergency granulopoiesis/hematopoiesis) in mice; format: in vivo, mouse; conditions: for LPS-induced expansion of LSK cells in bone marrow / LPS-induced emergency neutrophil production in peripheral blood (emergency granulopoiesis): LPS 0.8 mg/kg i.p. one dose, drug two days before and two days after LPS, day 2 post LPS; for LPS-induced emergency neutrophil production in peripheral blood (emergency granulopoiesis): APX3330 20 mg/kg twice a day i.p., SHP099 50 mg/kg daily gavage
Excerpt: Mice, LPS treatment and peripheral blood analysis. All mice were bred and maintained under specified pathogen-free (SPF) conditions at an animal facility at Indiana University School of Medicine. Experiments with mice were approved by the Institutional Animal Care and Use Committee (IACUC) of Indiana University School of Medicine. Tet2-knockout mice (Tet2^−/−, or Tet2-KO, CD45.2) is on C57BL/6 genetic background and has been previously described in Li et al., Blood 118, 4509-4518 (2011). Normal C57BL/6 (wild type, CD45.2) mice were purchased from The Jackson Laboratory and used as controls for all experiments. Whenever possible littermates were used as controls for all experiments.
(§1) Lipopolysaccharide (LPS) was purchased from Sigma (Cat # L8643) and dissolved in sterile phosphate-buffered saline (PBS) prior to being given to the mice for one dose only (0.8 mg/kg, i.p.). APX3330 (also referred to herein as E3330) was dissolved in Cremophor:EtOH (1:1) (Cremophor were purchased from Sigma, Cat # C5135) for making solution stock and then diluted in PBS prior to be used for pre-LPS treatment or post-LPS treatment (20 mg/kg, twice a day, i.p.). SHP099 (provided by Norvartis), was dissolved in 0.5% Methylcellulose (Sigma, Cat# M0262) and 0.1% Tween-80 (Fisher Scientific, Cat #BP338-500) and fed to animals by gavage (daily, 50 mg/kg). Male and female mice between 3-4 weeks (juvenile mice) or 8-16 weeks (adult mice) of age were used for LPS or LPS plus APX3330 experiments. Age and sex matched mice were always used as naïve (Day 0) controls. Aged Tet2-KO mice (male or female, 6-8 months of age) were used for APX3330 or SHP099 treatment in FIGS. 11A-11D.
(§2) Hematological analysis on peripheral blood (PB, from tail-bleeding) was run by an automated cell counter machine (Drew Hemavet 950). Total bone marrow (BM) cells were harvested from two femurs and two tibias of mice and filtered on 50-μm sterile filters. BM cells were always kept on ice or in refrigeration and stored in sterile blocking buffer containing 2% rat-serum prior to analysis. BM cellularity (viable cell counts) was analyzed by an automated cell counter (Beckman the Vi-CELL™ Cell Counter for Cell Viability Analyzer).
(§3) Flow cytometry. Non-lysed BM cells were used for analysis of erythroid lineage and progenitor cells (Ter119 and CD71 staining). Remaining flow cytometry analysis was performed on lysed bone marrow cells (Lysis Buffer, BD, Cat #555899). Antibodies against Ter119, Mac1, Gr1, B220, CD3, CD4 and CD8 were used for mature cells labeling (Linage labeling). Progenitor cells were labeled and analyzed by indicated markers. Antibody-labeled BM cells were run on a BD FACS-CANTO II machine with a two-laser and six-filter configuration. The properly compensated flow data were analyzed by Flow Jo software (V10.2). Events plotting, calculation of frequency and mean of fluorescence intensity (MFI), and histogram overlaying were analyzed by Flow Jo software.
It was next examined if APX3330 or SHP099 could repress inflammation and “emergency hematopoiesis” in Tet2-KO mice in vivo. It was first assessed if APX3330 or SHP099 could normalize LPS-induced acute inflammation. Before challenging the mice with LPS, wildtype and Tet2-KO mice were prophylactically treated with APX3330 or SHP099 for two days. Post LPS treatment, APX3330 or SHP099 was continuously injected in these mice for another two days (FIG. 13A). On day 2, post LPS treatment, mice were sacrificed and analyzed.

[3] = test system: Morrbid promoter; test: CHIP-qPCR assay of IκBζ and Stat3 binding; format: cell-based, mouse; conditions: Tet2-KO Lin-negative bone marrow cells
Excerpt: CHIP-qPCR assay. BM Lin-negative cells were used to extract chromatin DNA using MAGnify™ Chromatin Immunoprecipitation System (ThermoFisher) according to the manufacturer's instruction. CHIP purified chromatin DNA and input DNA were normalized to identical concentration for qPCR validation and enrichment analysis (1% enrichment of input level was defined as unit 1). The following antibodies were used for chromatin precipitation:Anti-IκBζ and Anti-Stat3 (Cell Signaling Technologies).

[4] = test system: aged Tet2-KO mice; test: Treatment of aged Tet2-KO mice with early signs of MPN; format: in vivo, mouse; conditions: for frequency of LSKs and CMPs / neutrophil counts (absolute numbers, burden) in peripheral blood / neutrophil frequency (percentage) in peripheral blood / platelet counts / red blood cell (RBC) counts (anemia) / serum IL-6 levels / spleen weight / splenomegaly / white blood cell (WBC) burden/count: treatment for 14 days; for early signs of MPN: aged Tet2-KO mice
Method: as §1, §2, §3
Multiplex cytokine assays. Serum samples were prepared from PB (tail-bleeding) and diluted in sterile PBS (1 to 2 dilution(s)). Thirty-one cytokines or chemokines were quantified by multiplex immunoassay with a BioPlex 200 instrument (Eve Technologies, Mouse Cytokine Array/Chemokine Array 31-Plex, Cat # MD31).
Statistics. All experimental procedures on Tet2-KO samples were run in parallel with wildtype controls (sex and age matched littermate controls when possible) for observing experimental variabilities. Analysis of grouped data was not blinded and no samples were excluded. Aged Tet2-KO mice were randomized into two groups for treatment with APX3330 or vehicle, SHP099 or vehicle (FIGS. 11A-11D). P-value was calculated using an unpaired t-test for comparing means of two groups (GraphPad Prism 6.0). Error bars in FIGS. 1-10 and 11A indicate the standard error of mean (s.e.m.) while error bars in FIG. 11C indicate the standard deviation (s.d.). Except that the secondary cBMT was performed in only one independent experiment for each group, all other assays were performed in at least two independent experiments with at least 3-5 biological replicates in total.
Furthermore, aged Tet2-KO maintained higher level of serum IL-6 compared to wildtype mice (FIG. 13H). 6-month old Tet2-KO mice were treated with APX3330 or SHP099 to assess the potential therapeutic benefit of these drugs in older mice (daily treatment for 14 days, FIG. 13I).

[5] = test system: phospho-Stat3; test: phospho-Stat3 expression in Tet2-KO Lin-negative cells; format: cell-based, mouse
[6] = aged (6-month old) Tet2-KO mice
[7] = aged (6-month old) Tet2-KO mice, listed as E3330

| SMILES | colony forming ability (CFU formation) [1] | LPS-induced expansion of LSK cells in bone marrow [2] | LPS-induced emergency neutrophil production in peripheral blood (emergency granulopoiesis) [2] | IκBζ and Stat3 binding to Morrbid promoter [3] | frequency of LSKs and CMPs [4, 6] | neutrophil counts (absolute numbers, burden) in peripheral blood [4, 6] | neutrophil frequency (percentage) in peripheral blood [4, 6] | platelet counts [4, 6] | red blood cell (RBC) counts (anemia) [4, 6] | serum IL-6 levels [4, 6] | spleen weight / splenomegaly [4, 6] | white blood cell (WBC) burden/count [4, 6] | early signs of MPN [4] | also measured |
| --- | --- | --- | --- | --- | --- | --- | --- | --- | --- | --- | --- | --- | --- | --- |
| CCCCCCCCCC(=CC1=C(C)C(=O)C(OC)=C(OC)C1=O)C(=O)O [APX3330] | normalization of colony formation; also recorded: block the enhanced colony forming activity | significant correction; also recorded: effectively repressed; also recorded: represses the expansion of LSK cells | significant correction in the enhanced production of neutrophils; also recorded: effectively repressed; also recorded: represses emergency neutrophil production | reduced IKBζ and Stat3 binding to Morrbid promoter | failed to reverse | significantly reduced | significantly reduced | restored | restores; also recorded: rescued to normal levels | reduced | a reduction in spleen weight was also observed in drug treated Tet2-KO mice, although it did not reach statistical significance; also recorded: failed to alter splenomegaly | significantly reduce; also recorded: restores | reverses early signs of MPN | colony forming ability (CFU formation) ([1]; listed as E3330): corrected the enhanced colony forming ability; LPS-induced emergency neutrophil production in peripheral blood (emergency granulopoiesis) ([2]; listed as E3330): repressed; LPS-induced expansion of LSK cells in bone marrow ([2]; listed as E3330): repressed; bone marrow cellularity ([2]; LPS-treated wild type and Tet2-KO mice, short-term treatment): maintained normal bone marrow cellularity; IκBζ and Stat3 binding to Morrbid promoter ([3]; listed as E3330): rescues the enhanced binding of IκBζ and Stat3 to the Morribid promoter; hematocrits (HCT) [4, 6]: rescued to normal levels; neutrophil counts (absolute numbers, burden) in peripheral blood [4, 7]: rescue; neutrophil frequency (percentage) in peripheral blood [4, 7]: rescue; serum IL-6 levels [4, 7]: rescue; early signs of MPN ([4]; listed as E3330): reversed early signs of MPN |
| CC1(N)CCN(c2cnc(-c3cccc(Cl)c3Cl)c(N)n2)CC1 [SHP099, 6-(4-amino-4-methyl-1-piperidinyl)-3-(2,3-dichlorophenyl)-2-pyrazinamine] | decreased; also recorded: block the enhanced colony forming activity; also recorded: corrected the enhanced colony forming ability | significant correction; also recorded: effectively repressed | significant correction in the enhanced production of neutrophils; also recorded: effectively repressed | decreased; also recorded: rescues the enhanced binding of IκBζ and Stat3 to the Morribid promoter | failed to reverse | significantly reduce; also recorded: rescue | rescue | restored | restores | reduced; also recorded: rescue | a reduction in spleen weight was also observed in drug treated Tet2-KO mice, although it did not reach statistical significance | significantly reduce; also recorded: restores | reversed early signs of MPN | expression of phospho-Stat3 [5]: decreased expression of phospho-Stat3 |
